Where two headings read alike, the source gives them in different places.
Experiments:
Mahlavu (HCC) = assay: Combination drug treatment, Combination Index and IC50 (Example 6); assay type: cell-based, Human
Description: (§1) Chou: Theoretical Basis, Experimental Design, and Computerized Simulation of Synergism and Antagonism in Drug Combination Studies, Pharmacological Reviews.

HeLa (Cervical) = assay: as above; assay type: cell-based
Description: as §1

NPM = assay: Induction of NPM expression by cellular stresses (Example 2); assay type: cell-based, Human; details: HCC cell lines following exposure; cisplatin 5.5, 69, 6.4 μg/ml, doxorubicin 1.4, 8.8, 5 μg/ml
Description: (§2) A subset of NPM was translocated to cytoplasm 6 hr after UV irradiation (indicated by an arrow in the right panel).
(§3) The expression of β-actin was used as the loading control. Simultaneous induction of BAX (pro-apoptosis) and NPM (anti-apoptosis) of cells upon cellular stress represents counteracting mechanisms regulating apoptosis versus survival response.

BAX [1] = assay: Induction of BAX expression by cellular stresses (Example 2); assay type: cell-based, Human; details: all three HCC cell lines following treatment
Description: as §2, §3

BAX [2] = assay: BAX mitochondrial translocation and oligomerization in liver cancer cells (Example 4); assay type: cell-based, Human; details: Hep3B and Mahlavu cells
Description: FIG. 6A illustrates the expression of NPM and BAX in the cytosol and the mitochondria of Mahlavu liver cancer cells following UV irradiation with or without transfected siRNA targeting NPM (NPM) or siRNA with scrambled sequences (NS). FIG. 6B illustrates the effect of siNPM and siNS on BAX dimmers (indicated with an asterisk) and BAX oligomers (twin-asterisk) in the mitochondria or the nuclei.
FIG. 6A illustrates cytoplasmic NPM increased after UV irradiation, whereas BAX increased in the cytosol and mitochondria after UV irradiation. Suppressing NPM expression by siRNA reduced the cytosolic BAX, while mitochondrial BAX level increased. […] Prohibitin (PHB) and glyceraldehyde 3-phosphate dehydrogenase (GAPDH) were used as the markers for mitochondrial and cytosolic components, respectively. Similar result for mitochondrial BAX enhancement was observed by inhibiting NPM with chemotherapeutic agents, such as staurosporin in Hep3B and Mahlavu cells.
A non-reducing condition for preparing cellular proteins was employed to validate the above findings.

[3] = Homo sapiens, concentration of the named drug in Lapatinib + NSC348884 combination therapy, 72 hours, read-out: IC50 Combination Therapy
[4] = Homo sapiens, monotherapy, 72 hours after exposure, read-out: IC50 Monotherapy
[5] = concentration of the named drug in Lapatinib + NSC348884 combination therapy, 72 hours, read-out: IC50 Combination Therapy
[6] = monotherapy, 72 hours after exposure, read-out: IC50 Monotherapy

`CS(=O)(=O)CCNCc1ccc(-c2ccc3ncnc(Nc4ccc(OCc5cccc(F)c5)c(Cl)c4)c3c2)o1` [Lapatinib] showed an IC50 (Mahlavu (HCC); [3]) of 14.4 µM, an IC50 (Mahlavu (HCC); [4]) of 12.8 µM and an IC50 (HeLa (Cervical); [3]) of 18.4 µM. The IC50 (HeLa (Cervical); [4]) was 20.8 µM.
`Cc1ccc2nc(CN(CCN(Cc3nc4ccc(C)cc4[nH]3)Cc3nc4ccc(C)cc4[nH]3)Cc3nc4ccc(C)cc4[nH]3)[nH]c2c1` [NSC348884] gave an IC50 (Mahlavu (HCC); [5]) of 3.84 µM, an IC50 (Mahlavu (HCC); [6]) of 6.15 µM and an IC50 (HeLa (Cervical); [5]) of 4.92 µM. For the same compound, the IC50 (HeLa (Cervical); [6]) was 6.24 µM.
In the case of `N.N.[Cl][Pt][Cl]` [cisplatin], the NPM expression (NPM) is reported as “upregulated” and the BAX expression (BAX [1]) is reported as “increased”.
In the case of `COc1cccc2c1C(=O)c1c(O)c3c(c(O)c1C2=O)C[C@@](O)(C(=O)CO)C[C@@H]3O[C@H]1C[C@H](N)[C@H](O)[C@H](C)O1` [doxorubicin], the NPM expression (NPM) is reported as “upregulated” and the BAX expression (BAX [1]) is reported as “increased”.
In the case of `CN[C@@H]1C[C@H]2O[C@@](C)([C@@H]1OC)n1c3ccccc3c3c4c(c5c6ccccc6n2c5c31)C(=O)NC4` [staurosporin], the “mitochondrial BAX” value (BAX [2]) is reported as “enhancement”.

— patent publication US9592407B2, “Pharmaceutical composition and uses thereof” (CHANG GUNG MEMORIAL HOSPITAL, LINKOU, priority 2012, dated 2017)
